Source: ChEMBL document CHEMBL1201862, “PubChem BioAssay data set” (2004)
Calls of active or inactive are those of the source.

Columns and labels:
[1] = HEp-2 cell cytotoxicity, dose response, cytotoxicity control for RSV inhibitor project, HTS (AID 2410); assay type: functional; details: human respiratory syncytial virus
[2] = target: T1, RNA-binding protein pos-1 (Caenorhabditis elegans, UniProt G5EF15); experiment: inhibitors of POS-1/mex-3 RNA binding, dose response, biochemical, fluorescence polarization (AID 1964);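 further: purified POS-1 fused to maltose binding protein made in E. coli; potency of compounds blocking POS-1 binding to fluorescent RNA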
T1 sequence (G5EF15 whole entry): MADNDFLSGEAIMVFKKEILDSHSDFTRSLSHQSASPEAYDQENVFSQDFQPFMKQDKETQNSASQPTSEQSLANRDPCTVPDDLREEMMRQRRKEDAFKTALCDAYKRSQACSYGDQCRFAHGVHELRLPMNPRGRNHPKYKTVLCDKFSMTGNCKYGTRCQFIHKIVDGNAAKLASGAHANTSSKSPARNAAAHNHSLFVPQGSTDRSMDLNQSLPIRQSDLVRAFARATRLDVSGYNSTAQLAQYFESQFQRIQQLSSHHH

[3] = target: T2, Zinc finger protein mex-5 (Caenorhabditis elegans, UniProt Q9XUB2); experiment: MEX-5/TCR-2 RNA interaction inhibitors, dose response, biochemical, C. elegans, fluorescence polarization (AID 1960)
T2 sequence (Q9XUB2 whole entry): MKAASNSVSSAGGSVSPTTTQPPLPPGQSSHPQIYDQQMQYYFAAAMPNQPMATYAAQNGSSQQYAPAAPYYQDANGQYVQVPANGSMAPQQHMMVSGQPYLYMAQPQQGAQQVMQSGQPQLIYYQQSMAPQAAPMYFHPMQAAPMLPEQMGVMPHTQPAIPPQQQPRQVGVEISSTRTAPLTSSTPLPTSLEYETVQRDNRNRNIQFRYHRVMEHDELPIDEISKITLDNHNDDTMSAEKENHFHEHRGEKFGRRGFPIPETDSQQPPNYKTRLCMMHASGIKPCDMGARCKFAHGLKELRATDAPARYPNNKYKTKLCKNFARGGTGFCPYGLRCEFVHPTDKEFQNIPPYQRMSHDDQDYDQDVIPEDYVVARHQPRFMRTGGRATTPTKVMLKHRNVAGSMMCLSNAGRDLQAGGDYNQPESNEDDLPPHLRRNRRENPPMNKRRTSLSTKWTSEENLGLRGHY

[4] = target: T3, Rac GTPase-activating protein 1 (Homo sapiens, UniProt Q9H0H5); experiment: MgcRacGAP GTPase-activating activity inhibitors, confirmation, biochemical, ADP Hunter fluorescence, primary and confirmatory (AID 624330); assay type: functional
T3 sequence (Q9H0H5 whole entry): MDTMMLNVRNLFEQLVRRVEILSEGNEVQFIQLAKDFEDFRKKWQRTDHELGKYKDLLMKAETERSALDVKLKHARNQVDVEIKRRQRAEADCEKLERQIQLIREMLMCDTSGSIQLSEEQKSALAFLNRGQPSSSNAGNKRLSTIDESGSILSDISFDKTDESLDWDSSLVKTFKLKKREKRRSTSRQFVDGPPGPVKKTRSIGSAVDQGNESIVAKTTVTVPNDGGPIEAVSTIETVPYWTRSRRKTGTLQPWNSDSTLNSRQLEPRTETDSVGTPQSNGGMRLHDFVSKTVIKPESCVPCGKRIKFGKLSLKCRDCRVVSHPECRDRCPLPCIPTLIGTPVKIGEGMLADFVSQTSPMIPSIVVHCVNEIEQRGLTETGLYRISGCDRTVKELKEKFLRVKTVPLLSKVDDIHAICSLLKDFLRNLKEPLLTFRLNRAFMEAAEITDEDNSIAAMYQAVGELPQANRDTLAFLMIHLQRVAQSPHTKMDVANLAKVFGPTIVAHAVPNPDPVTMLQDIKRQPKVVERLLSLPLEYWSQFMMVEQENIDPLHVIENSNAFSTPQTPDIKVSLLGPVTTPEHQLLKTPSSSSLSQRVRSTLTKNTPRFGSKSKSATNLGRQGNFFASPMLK

Cytochrome P450 2C19 = Cytochrome P450 2C19 (Homo sapiens, UniProt P33261); experiment: Cytochrome panel assay with activity outcomes. Panel member name: p450-cyp2c19 Compounds with AC50 equal or less than 10 uM are considered active; assay type: functional
Sequence of Cytochrome P450 2C19 (P33261 whole entry): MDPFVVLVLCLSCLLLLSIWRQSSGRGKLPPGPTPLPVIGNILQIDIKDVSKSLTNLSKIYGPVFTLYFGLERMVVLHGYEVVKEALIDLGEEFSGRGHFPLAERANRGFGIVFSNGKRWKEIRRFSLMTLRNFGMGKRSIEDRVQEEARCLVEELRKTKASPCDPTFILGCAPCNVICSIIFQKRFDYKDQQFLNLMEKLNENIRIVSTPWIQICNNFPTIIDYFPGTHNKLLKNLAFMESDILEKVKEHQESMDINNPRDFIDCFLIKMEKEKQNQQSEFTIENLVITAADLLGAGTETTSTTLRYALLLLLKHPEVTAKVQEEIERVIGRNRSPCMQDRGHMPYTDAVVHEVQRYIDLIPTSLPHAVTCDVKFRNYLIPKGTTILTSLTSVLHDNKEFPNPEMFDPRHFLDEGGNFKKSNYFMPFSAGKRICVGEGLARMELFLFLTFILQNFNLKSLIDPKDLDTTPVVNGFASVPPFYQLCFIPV

Cytochrome P450 2D6 = Cytochrome P450 2D6 (Homo sapiens, UniProt P10635);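 further: CYP2D6 member of a cytochrome P450 panel assay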
Sequence of Cytochrome P450 2D6 (P10635 whole entry): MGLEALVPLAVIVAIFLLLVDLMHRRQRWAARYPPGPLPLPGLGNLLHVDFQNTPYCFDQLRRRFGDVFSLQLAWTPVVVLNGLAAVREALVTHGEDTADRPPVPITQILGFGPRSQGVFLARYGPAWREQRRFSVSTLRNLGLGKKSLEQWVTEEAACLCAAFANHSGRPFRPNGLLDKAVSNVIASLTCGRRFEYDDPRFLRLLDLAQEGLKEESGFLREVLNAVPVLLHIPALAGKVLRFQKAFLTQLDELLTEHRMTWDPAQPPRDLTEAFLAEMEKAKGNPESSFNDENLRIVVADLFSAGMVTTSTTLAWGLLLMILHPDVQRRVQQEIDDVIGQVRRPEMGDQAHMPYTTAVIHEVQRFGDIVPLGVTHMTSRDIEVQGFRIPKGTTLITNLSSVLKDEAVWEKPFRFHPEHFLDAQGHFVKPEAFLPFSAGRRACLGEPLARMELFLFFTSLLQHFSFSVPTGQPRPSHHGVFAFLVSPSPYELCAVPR

Cytochrome P450 1A2 = target: T4, Cytochrome P450 1A2 (Homo sapiens, UniProt P05177);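 further: PubChem cytochrome P450 panel assay, CYP1A2 panel member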
T4 sequence (P05177 whole entry): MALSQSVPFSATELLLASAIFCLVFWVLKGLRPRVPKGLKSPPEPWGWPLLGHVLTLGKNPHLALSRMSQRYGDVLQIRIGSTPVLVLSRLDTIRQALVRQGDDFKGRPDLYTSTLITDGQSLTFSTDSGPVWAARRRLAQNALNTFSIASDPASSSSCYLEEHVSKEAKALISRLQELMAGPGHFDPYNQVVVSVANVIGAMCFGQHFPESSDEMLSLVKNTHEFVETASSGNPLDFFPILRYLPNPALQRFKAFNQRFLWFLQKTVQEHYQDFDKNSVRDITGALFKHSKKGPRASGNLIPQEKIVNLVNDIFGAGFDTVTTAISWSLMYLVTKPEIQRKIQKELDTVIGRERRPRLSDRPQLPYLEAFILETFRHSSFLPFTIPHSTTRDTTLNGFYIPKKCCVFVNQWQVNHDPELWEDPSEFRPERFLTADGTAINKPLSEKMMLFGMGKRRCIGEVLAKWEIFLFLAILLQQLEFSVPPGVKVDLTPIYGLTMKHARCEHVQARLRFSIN

[5] = tested on: Streptococcus sp. 'group A'; experiment: growth inhibition of control SK(-) GAS strain, dose response, counter-screen for streptokinase expression inhibitor project, luminescence, kanamycin, BacTiterGlo, confirmation (AID 1900); assay type: functional, organism-based
[6] = inhibitors of intracellular T. cruzi replication, confirmation, NIH3T3 host cells, beta-gal luminescence (AID 2044); assay type: functional, cell-based;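 further: intracellular parasites grown in NIH/3T3 mouse fibroblasts as host cells; luminescent beta-galactosidase reporter signal from transgenic T. cruzi replicating inside host cells; inhibitors lower the luminescence signal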
[7] = cytotoxicity toward NIH3T3 fibroblasts, dose response, counter-screen, cell-based, ATP luminescence, mouse fibroblasts (AID 2010); assay type: functional;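 further: cells exposed to compound for about 90 hours before reading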
Streptococcus = experiment: Group A Streptococcus viability loss, dose response, counter-screen for streptokinase expression inhibitor project, luminescence, BacTiterGlo (AID 1915); assay type: functional, organism-based;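 further: potency for reduction of bacterial viability or growth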
[8] = target: FAD-linked sulfhydryl oxidase ALR (Homo sapiens, UniProt P55789); experiment: inhibitors of human ALR sulfhydryl oxidase, dose response, biochemical, H2O2 detection, luminescence, cherry-pick (AID 493248)
Sequence of FAD-linked sulfhydryl oxidase ALR (P55789 whole entry): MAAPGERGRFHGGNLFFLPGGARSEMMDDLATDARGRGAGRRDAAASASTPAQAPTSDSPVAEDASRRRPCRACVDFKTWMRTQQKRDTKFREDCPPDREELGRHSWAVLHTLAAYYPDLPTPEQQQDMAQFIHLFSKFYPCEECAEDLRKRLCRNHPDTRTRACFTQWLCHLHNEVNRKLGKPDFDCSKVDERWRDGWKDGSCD

## CCc1c(C(=O)NCc2ccccc2Cl)[nH]c(C)c1C(C)=O
[1]
  CC50: > 50 µM (active)

## COc1ccc(/C=C2\SC(=S)N(CCC(=O)NC3CCCC3)C2=O)cc1OC
[2]
  EC50: > 300 µM (not active)
[3]
  EC50: 153 µM (active)

## CCN(CC)c1ccc(NC(=O)CN(C)Cc2cccs2)cc1
[4]
  IC50: 90.9 µM (active)

## Cc1ccc2nc3c(cc(C(=O)NCC4CCCO4)c(=N)n3C3CCCC3)c(=O)n2c1 (stereo not given)
[2]
  EC50: > 300 µM (not active)
[3]
  EC50: > 300 µM (not active)

## O=C(Nc1cccc(F)c1)N1CC2(CCN(C(=O)c3ccncc3)CC2)C1
Cytochrome P450 2C19
  AC50: inconclusive

## Cc1ccc(C)c(N(C)C(=O)c2coc(=O)c3ccccc23)c1
[2]
  EC50: > 300 µM (not active)
[3]
  EC50: > 300 µM (not active)

## O=C(C1CCCN(S(=O)(=O)c2cccc3nsnc23)C1)N1CC=C(c2ccccc2)CC1 (stereo not given)
Cytochrome P450 2D6
  AC50: 5.01 µM (inconclusive)
Cytochrome P450 1A2
  AC50: 14.1 µM (inconclusive)

## O=[N+]([O-])c1ccc(/C=N/Nc2nc(N3CCCCCC3)nc(N3CCCCCC3)n2)o1
[1]
  CC50: 11.6 µM (active)
[5]
  EC50: 0.504 µM (active)
[6]
  EC50: 0.197 µM (active)
[7]
  EC50: > 60 µM (not active)
Streptococcus
  EC50: 2.35 µM (active)

## COc1ccccc1CCC(=O)OCc1csc(CC(=O)Nc2ccccc2C)n1
[2]
  EC50: > 300 µM (not active)
[3]
  EC50: > 300 µM (inconclusive)

## COc1ccc(CCNC(=O)c2ccc3c(=O)n(Cc4ccco4)c(=S)[nH]c3c2)cc1OC
Cytochrome P450 2C19; read-out: AC50
  AC50: 7.94 µM (inconclusive)

## COc1ccc(-n2c(N)c(C(=O)Nc3c(C)n(C)n(-c4ccccc4)c3=O)c3nc4ccccc4nc32)cc1
[1]
  CC50: > 50 µM (active)

## COc1cc(C(=O)NCCC(=O)NCc2ccc3c(c2)OCO3)cc(OC)c1OC
Cytochrome P450 2C19; read-out: AC50
  AC50: 28.2 µM (inconclusive)
Cytochrome P450 2D6
  AC50: 25.1 µM (inconclusive)

## COc1cccc(-c2nc(NCCN3CCOCC3)c3ccccc3n2)c1
Cytochrome P450 2C19; read-out: AC50
  AC50: 20 µM (inconclusive)

## Cc1ccc(S(=O)(=O)c2c(N)n(NC(=O)c3ccccc3C)c3nc4ccccc4nc23)cc1
[1]
  CC50: 22.9 µM (active)

## Cc1ccc(CCC(=O)Nc2ccc(N(C)C)cc2)o1
[4]
  IC50: 45.1 µM (active)

## COc1cc2[nH]c(C(=O)NN)c(N)c2cc1OC
[2]
  EC50: 117 µM (active)
[3]
  EC50: 18.5 µM (active)

## O=S(=O)(c1ccc(Cl)s1)N1CCc2ccccc2C1
Cytochrome P450 2D6
  AC50: 31.6 µM (inconclusive)
Cytochrome P450 1A2
  AC50: 25.1 µM (inconclusive)

## O=C(O)CSc1ncnc2sc3c(c12)CCC3
Cytochrome P450 2C19; read-out: AC50
  AC50: 39.8 µM (inconclusive)
Cytochrome P450 1A2
  AC50: 28.2 µM (inconclusive)

## CN1CC(=O)N(CC(=O)Nc2ccc(SC(F)F)cc2)C1=O
[8]
  AC50: 0.477 µM (active)

## Cc1ccc(NC(=O)/C(=C\c2ccc3c(c2)OCO3)NC(=O)c2ccco2)cc1
Cytochrome P450 2D6
  AC50: 15.8 µM (inconclusive)
Cytochrome P450 1A2
  AC50: 11.2 µM (inconclusive)

## CCOc1cc(/C=N/NC(=O)CCCC(=O)NC2CCCCC2)ccc1O
[4]
  IC50: 69.6 µM (active)

## NC(=O)C1CCN(C(=O)CN2C(=O)c3ccccc3S2(=O)=O)CC1
Cytochrome P450 2C19; read-out: AC50
  AC50: 14.1 µM (inconclusive)

## O=C1c2ccccc2S(=O)(=O)N1CCCCN1CCN(c2ncccn2)CC1 [IPSAPIRONE]
Cytochrome P450 2D6
  AC50: 20 µM (inconclusive)
Cytochrome P450 1A2
  AC50: 31.6 µM (inconclusive)

## CCN(CCNC(=O)C1CCCN(S(=O)(=O)c2c[nH]cn2)C1)c1ccccc1 (stereo not given)
[8]
  AC50: 0.394 µM (active)

## Cc1cc(C)nc(N/N=C/c2c[nH]c3ccccc23)n1
[4]
  IC50: 63.2 µM (active)
